From patent US6518246B1, “Pharmaceutical composition and method for the treatment of neoplastic cells” (priority 2001, dated 2003)

Key:
[1] = Deaths of animals during treatment, Example 1; assay type: in vivo, nude mice (C57BL/6JBom-nu); details: single substance 10 μg/kg every 12 hours; dissection: metastasis / abdominal carcinosis
Protocol: (§1) Female nude mice (C57BL/6JBom-nu, Bomholtgård Breeding and Research Centre, Denmark), 8 weeks old, with a mean body weight of 22.9 g (range 20.4-25.5), were used in this investigation. The mice were kept one to each cage in a laminar filtered airflow cabinet under pathogen-free conditions. The animals were kept under a constant temperature (22±2° C.) and relative humidity (55±5%), with 12 h dark/light cycles. They were fed on a standard pellet diet (R 34, Lactamin, Vadstena, Stockholm) and given water ad libitum. All experiments were performed by aseptic techniques under laminar airflow.
(§2) The animals were divided into two groups of 10 mice each. The first group received s.c. injections of 100 μl saline solution containing a mixture of octreotide (Sandostatin®, Novartis), galanin (synthetic human galanin, Sigma, Stockholm), and serotonin (5-hydroxytryptamine, oxalate salt, Sigma) at 10 μg/kg body weight each. Injections were administered every 12 hours for five days. The second group served as controls and received only saline solution. Thirty-two mice were implanted with the tumour as described above and left for seven days. After measuring the tumour diameter, the animals were divided into four groups of eight. […]

[2] = system: N-methyl-N′-nitroguanidine-induced rat colonic adenocarcinoma; test: Apoptosis by in situ hybridisation, apoptotic index, Example 1; assay type: in vivo, nude mice (C57BL/6JBom-nu); details: single substance 10 μg/kg, five days; for Apoptotic index, second in situ hybridisation kit (mean±SD): controls 3.5±0.6, P=0.15; for Apoptotic index, first in situ hybridisation kit: vs controls, P=0.2
Protocol: (§3) The animals were divided into two groups of 10 mice each. The first group received s.c. injections of 100 μl saline solution containing a mixture of octreotide (Sandostatin®, Novartis), galanin (synthetic human galanin, Sigma, Stockholm), and serotonin (5-hydroxytryptamine, oxalate salt, Sigma) at 10 μg/kg body weight each. Injections were administered every 12 hours for five days. The second group served as controls and received only saline solution. Thirty-two mice were implanted with the tumour as described above and left for seven days. After measuring the tumour diameter, the animals were divided into four groups of eight. The first group was injected with 100 μl saline solution, the second with 100 μl saline solution containing 10 μg/kg body weight octreotide, the third group with 100 μl saline solution containing 10 μg/kg body weight galanin, and the last group was injected with 100 μl saline solution containing 10 μg/kg bodyweight serotonin. Injections were administered every 12 hours for five days.
(§4) At the end of the experiments, the animals were weighed and then decapitated. The tumours were dissected carefully and their diameters and weight were determined. Three tissue samples cut perpendicular to the surface were taken from each tumour, two from the periphery and one from the middle. The tissue samples were fixed overnight in 4% buffered paraformaldehyde, embedded in paraffin wax, and cut at 5 μm.
Apoptosis was detected by in situ hybridisation using two different kits (TA200 and TA5411) from R&D Systems Inc (Minneapolis, Minn. USA). Both kits detect DNA fragmentation, but with two different detection approaches. In the first kit, fragments of DNA were detected by incorporating modified nucleotides at the 3′OH ends of the fragments, using terminal deoxynucleotidyl transferase (TdT). The incorporated 5-bromodeoxyuridine (BrdU) was detected by a biotinylated anti-BrdU antibody. A streptavidin-conjugated horsradish peroxidase specifically bound to the biotinylated antibody. In the second kit, TdT added biotinylated nucleotides to the 3′OH ends of the DNA fragments. Again, a streptavidin-conjugated horseradish peroxidase specifically bound to the biotinylated DNA fragments. The peroxidase in both kits was detected by diaminobenzidine tetrahydrochloride (DAB). The sections were counter-stained with methyl green. […]
Apoptotic index was determined using the unbiased counting frames (as described in detail previously), adapted to computer image analysis (Palmqvist et al., 1998). […] About 40 fields from each tumour, spread randomly in sections from the three tissue samples, were measured. For each tumour about 200 positive and 200 negative nuclei were counted. The labelling index (LI) was calculated as follows: […]

[3] = system: N-methyl-N′-nitroguanidine-induced rat colonic adenocarcinoma; test: Tumour volume and wet weight, Example 1; assay type: in vivo, nude mice (C57BL/6JBom-nu); details: single substance 10 μg/kg body weight every 12 hours for five days, vs controls; for tumour volume: P=0.4; for tumour weight: P=0.8
Protocol: as §1
Twenty mice were injected s.c. with 100 μl cell suspension containing 2×10^6 viable cells of an N-methyl-N′-nitroguanidine-induced rat colonic adenocarcinoma (provided kindly by Professor L.-O. Hafström, Departnent of Surgery, University Hospital, Umeå, Sweden). After seven days, the greatest and least diameters of the tumours were measured and the volume was calculated with the use of the following formula:
volume=(mean diameter)^333 π/6.
as §3, §4

[4] = system: N-methyl-N′-nitroguanidine-induced rat colonic adenocarcinoma; test: Proliferation (PCNA immunostaining), proliferation index, Example 1; assay type: in vivo, nude mice (C57BL/6JBom-nu); details: single substance 10 μg/kg, five days; vs controls, P=0.8
Protocol: as §2
At the end of the experiments, the animals were weighed and then decapitated. The tumours were dissected carefully and their diameters and weight were determined. […]
To detect proliferation, the sections from the tumour tissue samples from all the animals were immnmostained with the avidin-biotin-complex (ABC) method (Dakopatts, Glostrup, Denmark), as described in detail earlier (E1-Salhy et al., 1993). […] Peroxidase was detected by immersing the sections in 50 ml Tris-buffer containing 25 mg diaminobenzidine tetrahydrochloride (DAB) and 10 μl of 30% H2O2 followed by slight counter-staining in Mayer's haematoxylin. […] The proliferating index was determined as described for apoptosis.

[5] = system: rat colonic cancer cells; details: in vivo; cited from earlier work
[6] = system: asymptomatic advanced colon carcinoma; details: about 7 μ/kg/d; patients; cited from earlier work

Row | Compound | deaths during the experiment [1] | Apoptotic index, second in situ hybridisation kit (mean±SD) [2] | Apoptotic index, first in situ hybridisation kit [2] | tumour volume [3] | tumour weight [3] | tumour proliferation index [4] | mitotic rate of rat colonic cancer cells [5] | progression of the disease [6]
1 | CC(C)C[C@H](NC(=O)CNC(=O)[C@H](CC(N)=O)NC(=O)[C@H](CCCCN)NC(=O)[C@H](CC(=O)O)NC(=O)[C@H](CO)NC(=O)[C@H](Cc1ccccc1)NC(=O)[C@H](CO)NC(=O)[C@H](CCCNC(=N)N)NC(=O)[C@H](Cc1cnc[nH]1)NC(=O)[C@H](CC(N)=O)NC(=O)CNC(=O)[C@@H](NC(=O)[C@H](C)NC(=O)[C@H](Cc1cnc[nH]1)NC(=O)[C@@H]1CCCN1C(=O)CNC(=O)[C@H](CC(C)C)NC(=O)[C@H](CC(C)C)NC(=O)[C@H](Cc1ccc(O)cc1)NC(=O)CNC(=O)[C@H](C)NC(=O)[C@H](CO)NC(=O)[C@H](CC(N)=O)NC(=O)[C@H](CC(C)C)NC(=O)[C@@H](NC(=O)[C@H](Cc1c[nH]c2ccccc12)NC(=O)CN)[C@@H](C)O)C(C)C)C(=O)N[C@H](C(=O)N[C@@H](CO)C(=O)O)[C@@H](C)O [galanin] | Two mice in the group treated with galanin died | – | – | – | – | – | – | –
2 | NCCc1c[nH]c2ccc(O)cc12 [serotonin, 5-hydroxytryptamine] | – | 4±0.5 | no difference | no significant difference | no significant difference | Neither was there any difference | increase | –
3 | octreotide | – | 3±1.1 | no difference | no significant difference | no significant difference | Neither was there any difference | – | no effect
